Reference: publication PMC12457078, “Inhibition of soluble epoxide hydrolase in endotoxin induced pig lung injury” (Frontiers in Pharmacology, 2025)
Read-outs that look alike come from different tables or passages of the source.

Columns and labels:
Recombinant porcine sEH = target: T1, Recombinant porcine sEH (Sus scrofa, UniProt Q6Q2C2); assay: fluorescent activity assay (MNPC substrate), sEH inhibition potency; type: biochemical, pig
T1 construct: made in house
T1 sequence (Q6Q2C2 1-555): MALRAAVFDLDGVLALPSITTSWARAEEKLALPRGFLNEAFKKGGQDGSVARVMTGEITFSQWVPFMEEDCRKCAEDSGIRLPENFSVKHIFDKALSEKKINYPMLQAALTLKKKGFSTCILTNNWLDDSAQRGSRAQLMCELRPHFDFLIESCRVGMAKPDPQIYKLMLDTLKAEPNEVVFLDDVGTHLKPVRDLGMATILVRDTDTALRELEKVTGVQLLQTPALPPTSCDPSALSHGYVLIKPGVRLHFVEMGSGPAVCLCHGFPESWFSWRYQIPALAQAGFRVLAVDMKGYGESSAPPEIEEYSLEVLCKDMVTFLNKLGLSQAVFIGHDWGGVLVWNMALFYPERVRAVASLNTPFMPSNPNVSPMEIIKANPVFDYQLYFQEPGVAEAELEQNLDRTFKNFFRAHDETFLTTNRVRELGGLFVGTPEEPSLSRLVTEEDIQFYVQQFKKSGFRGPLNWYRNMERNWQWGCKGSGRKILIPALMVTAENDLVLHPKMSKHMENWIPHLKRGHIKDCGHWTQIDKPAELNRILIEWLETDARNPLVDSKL

[1] = liver microsomal assay (metabolic stability); type: in vitro ADME, pig; settings: pig liver microsomes, NADPH generating system, 35 min
Procedure: To further characterize the inhibitors with regard to suitability for administration in pigs, a microsomal assay was used to determine metabolic stability ([Ackley et al., 2004]) for a subset of eight inhibitors chosen for their potency and availability. Microsomal preparations from pig liver were purchased from XenoTech (Kansas City, KS, US). Microsomes, buffer and NADPH generating system were combined, and then the inhibitor was added. The reaction was stopped after 35 min with ice cold acetonitrile containing internal standard (12-[[(cyclohexylamino)carbonyl]amino]-dodecanoic acid). The amount left of parent inhibitor was determined with LC-MS/MS.

[2] = 5 min preincubation 37 °C, MNPC 5 µM, read-out: Pig sEH IC50

| IC50 (Recombinant porcine sEH; [2]) [nM] | Liver microsomal stability: Amount remaining after 35 min (% of initial) [1] | Compound | IC50 (Recombinant porcine sEH) [nM] |
| --- | --- | --- | --- |
| 70 | – | CC(C)C(=O)N1CCC(NC(=O)Nc2ccc(C(F)(F)F)cc2)CC1 [Compound 2389] | – |
| 44 | – | O=C(Nc1ccc(C(F)(F)F)cc1)NC1CCN(C(=O)CC(F)(F)F)CC1 [Compound 2714] | – |
| 48 | 66 ± 1 % of initial | CNc1nc(C)nc(N[C@H]2CCC[C@@H](C(=O)NCc3ccc(C#N)cc3C(F)(F)F)C2)n1 [Compound 2946] | – |
| 34 | 78 ± 3 % of initial | O=C(Nc1ccc(OC(F)(F)F)cc1)N[C@H]1CC[C@H](Oc2ccc(C(=O)O)cc2)CC1 [Compound 1728] | – |
| 19 | – | O=C(Nc1ccc(OC(F)(F)F)cc1)N[C@H]1CC[C@@H](Oc2ccc(C(=O)O)cc2)CC1 [Compound 1686] | – |
| 60 | – | CCCC(=O)N1CCC(NC(=O)Nc2ccc(C(F)(F)F)cc2)CC1 [Compound 2413] | – |
| 38 | – | CC(C)C(=O)N1CCC(NC(=O)Nc2ccc(OC(F)(F)F)cc2)CC1 [Compound 2422] | – |
| 107 | – | CCC(C)C(=O)N1CCC(NC(=O)Nc2cc(C(F)(F)F)cc(C(F)(F)F)c2)CC1 (centres unmarked) [Compound 2421] | – |

Second part, the molecule before the results:

| Compound | IC50 (Recombinant porcine sEH; [2]) [nM] | Liver microsomal stability: Amount remaining after 35 min (% of initial) [1] | IC50 (Recombinant porcine sEH) [nM] |
| --- | --- | --- | --- |
| O=C(Nc1cccc2ccccc12)NC1CCCCC1 [Compound 59] | 105 | – | – |
| COC(=O)c1ccc(NC(=O)NC23CC4CC(CC(C4)C2)C3)cc1O [Compound 1671] | 5 | – | – |
| O=C(O)CCCCCCCCCCCNC(=O)NC12CC3CC(CC(C3)C1)C2 [Compound 700] | – | 1 ± 0.1 % of initial | – |
| CCC(C)C(=O)N1CCC(NC(=O)Nc2ccc(OC(F)(F)F)cc2)CC1 (centres unmarked) [Compound 2385] | – | 55 ± 3 % of initial | 19 |
| CC(=O)N1CCC(NC(=O)Nc2ccc(OC(F)(F)F)cc2)CC1 [Compound 1555] | – | – | 197 |
| O=C(O)CCCCCCCCCCCNC(=O)Nc1ccc(OC(F)(F)F)cc1 [Compound 1663] | 40 | – | – |
